PubChem BioAssay (NCI)
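Test compounds were applied to cells in 96-well plates for 48 hours at 5 doses. Abbreviation: GI50, concentration required for 50% inhibition of growth. TGI marks complete inhibition of growth.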

Legend:
Experiment in all cases: growth of human tumour cells (NCI), 48 h
COLO 205 colon = system: COLO 205 colon
SK-OV-3 ovarian = system: SK-OV-3 ovarian
K-562 leukemia = system: K-562 leukemia
HCT-15 colon = system: HCT-15 colon
OVCAR-4 ovarian = system: OVCAR-4 ovarian
SF-539 CNS = system: SF-539 CNS
NCI-H23 lung = system: NCI-H23 lung
NCI-H522 lung = system: NCI-H522 lung
CCRF-CEM leukemia = system: CCRF-CEM leukemia
U251 CNS = system: U251 CNS
M14 melanoma = system: M14 melanoma
HL-60(TB) leukemia = system: HL-60(TB) leukemia
LOX IMVI melanoma = system: LOX IMVI melanoma
NCI-H460 lung = system: NCI-H460 lung
CAKI-1 renal = system: CAKI-1 renal
EKVX NSCLC = system: EKVX NSCLC
RXF 393 renal = system: RXF 393 renal
A549 NSCLC = system: A549 NSCLC
SNB-19 CNS = system: SNB-19 CNS
MDA-MB-435 = system: MDA-MB-435
SK-MEL-28 melanoma = system: SK-MEL-28 melanoma
HT29 colon = system: HT29 colon
HS 578T breast = system: HS 578T breast
HCT-116 colon = system: HCT-116 colon
MDA-MB-231 breast = system: MDA-MB-231 breast
OVCAR-8 ovarian = system: OVCAR-8 ovarian
OVCAR-5 ovarian = system: OVCAR-5 ovarian
SN12C renal = system: SN12C renal
UACC-62 melanoma = system: UACC-62 melanoma
HOP-62 NSCLC = system: HOP-62 NSCLC
786-0 renal = system: 786-0 renal
KM12 colon = system: KM12 colon
SF-295 CNS = system: SF-295 CNS
MALME-3M melanoma = system: MALME-3M melanoma
TK-10 renal = system: TK-10 renal
SK-MEL-5 melanoma = system: SK-MEL-5 melanoma
UO-31 renal = system: UO-31 renal
HCC-2998 colon = system: HCC-2998 colon
MCF7 breast = system: MCF7 breast
NCI-H226 lung = system: NCI-H226 lung
OVCAR-3 ovarian = system: OVCAR-3 ovarian
SR leukemia = system: SR leukemia
SNB-75 CNS = system: SNB-75 CNS
T-47D breast = system: T-47D breast
BT-549 breast = system: BT-549 breast
SW-620 colon = system: SW-620 colon
IGROV1 ovarian = system: IGROV1 ovarian
DU-145 prostate = system: DU-145 prostate
A498 renal = system: A498 renal
UACC-257 melanoma = system: UACC-257 melanoma
NCI/ADR-RES ovarian = system: NCI/ADR-RES ovarian
SF-268 CNS = system: SF-268 CNS
PC-3 prostate = system: PC-3 prostate
RPMI-8226 leukemia = system: RPMI-8226 leukemia
SK-MEL-2 melanoma = system: SK-MEL-2 melanoma
MDA-MB-468 breast = system: MDA-MB-468 breast
ACHN renal = system: ACHN renal
HOP-92 NSCLC = system: HOP-92 NSCLC
MOLT-4 leukemia = system: MOLT-4 leukemia

O=c1[nH]c2ccccc2cc1CSc1ccc(Nc2nccc(-c3ccc(C(F)(F)F)cc3)n2)cc1
GI50 (COLO 205 colon): 9.82 µM | TGI (COLO 205 colon): 74.1 µM | GI50 (SK-OV-3 ovarian): 15.6 µM | TGI (SK-OV-3 ovarian): 30.6 µM | GI50 (K-562 leukemia): 13.9 µM | TGI (K-562 leukemia): > 100 µM | GI50 (HCT-15 colon): 2.27 µM | TGI (HCT-15 colon): 69.7 µM | GI50 (OVCAR-4 ovarian): 1.23 µM | TGI (OVCAR-4 ovarian): 3.95 µM | GI50 (SF-539 CNS): 2.7 µM | TGI (SF-539 CNS): 10.9 µM | GI50 (NCI-H23 lung): 4 µM | TGI (NCI-H23 lung): 18.8 µM | GI50 (NCI-H522 lung): 6.19 µM | TGI (NCI-H522 lung): 28.7 µM | GI50 (CCRF-CEM leukemia): 3.51 µM | TGI (CCRF-CEM leukemia): > 100 µM | GI50 (U251 CNS): 0.198 µM | TGI (U251 CNS): 2.61 µM | GI50 (M14 melanoma): 16.8 µM | TGI (M14 melanoma): 61.3 µM | GI50 (HL-60(TB) leukemia): > 100 µM | TGI (HL-60(TB) leukemia): > 100 µM | GI50 (LOX IMVI melanoma): 3.63 µM | TGI (LOX IMVI melanoma): 19.5 µM | GI50 (NCI-H460 lung): 0.0643 µM | TGI (NCI-H460 lung): 1.53 µM | GI50 (CAKI-1 renal): 1.66 µM | TGI (CAKI-1 renal): 7.13 µM | GI50 (EKVX NSCLC): 3.5 µM | TGI (EKVX NSCLC): 40.5 µM | GI50 (RXF 393 renal): 2.67 µM | TGI (RXF 393 renal): 13 µM | GI50 (A549 NSCLC): 2.12 µM | TGI (A549 NSCLC): 10.1 µM | GI50 (SNB-19 CNS): 2.32 µM | TGI (SNB-19 CNS): 10.3 µM | GI50 (MDA-MB-435): 11.9 µM | TGI (MDA-MB-435): 55.4 µM | GI50 (SK-MEL-28 melanoma): 20.6 µM | TGI (SK-MEL-28 melanoma): > 100 µM | GI50 (HT29 colon): 3.46 µM | TGI (HT29 colon): > 100 µM | GI50 (HS 578T breast): 0.403 µM | TGI (HS 578T breast): 4.64 µM | GI50 (HCT-116 colon): 0.0885 µM | TGI (HCT-116 colon): 11.6 µM | GI50 (MDA-MB-231 breast): 1.66 µM | TGI (MDA-MB-231 breast): 9.04 µM | GI50 (OVCAR-8 ovarian): 1.94 µM | TGI (OVCAR-8 ovarian): 5.97 µM | GI50 (OVCAR-5 ovarian): 30.6 µM | TGI (OVCAR-5 ovarian): > 100 µM | GI50 (SN12C renal): 16.7 µM | TGI (SN12C renal): 40.8 µM | GI50 (UACC-62 melanoma): 15.4 µM | TGI (UACC-62 melanoma): 33 µM | GI50 (HOP-62 NSCLC): 1.81 µM | TGI (HOP-62 NSCLC): 4.45 µM | GI50 (786-0 renal): 1.53 µM | TGI (786-0 renal): 3.29 µM | GI50 (KM12 colon): 94.3 µM | TGI (KM12 colon): > 100 µM | GI50 (SF-295 CNS): 1.62 µM | TGI (SF-295 CNS): 5.72 µM | GI50 (MALME-3M melanoma): 6.51 µM | TGI (MALME-3M melanoma): 22.6 µM | GI50 (TK-10 renal): 1.6 µM | TGI (TK-10 renal): 3.97 µM | GI50 (SK-MEL-5 melanoma): 15.4 µM | TGI (SK-MEL-5 melanoma): 45.9 µM | GI50 (UO-31 renal): 4.82 µM | TGI (UO-31 renal): 19.6 µM | GI50 (HCC-2998 colon): 6.89 µM | TGI (HCC-2998 colon): > 100 µM | GI50 (MCF7 breast): 4.55 µM | TGI (MCF7 breast): > 100 µM | GI50 (NCI-H226 lung): 1.52 µM | TGI (NCI-H226 lung): 3.8 µM | GI50 (OVCAR-3 ovarian): 1.38 µM | TGI (OVCAR-3 ovarian): 3.58 µM | GI50 (SR leukemia): > 100 µM | TGI (SR leukemia): > 100 µM | GI50 (SNB-75 CNS): 0.714 µM | TGI (SNB-75 CNS): 3.88 µM | GI50 (T-47D breast): 1.84 µM | TGI (T-47D breast): 54.3 µM | GI50 (BT-549 breast): 2.66 µM | TGI (BT-549 breast): 17.1 µM | GI50 (SW-620 colon): 5.53 µM | TGI (SW-620 colon): > 100 µM | GI50 (IGROV1 ovarian): 17 µM | TGI (IGROV1 ovarian): 43.6 µM | GI50 (DU-145 prostate): 13.2 µM | TGI (DU-145 prostate): > 100 µM | GI50 (A498 renal): 1.93 µM | TGI (A498 renal): 3.84 µM | GI50 (UACC-257 melanoma): 29.2 µM | TGI (UACC-257 melanoma): > 100 µM | GI50 (NCI/ADR-RES ovarian): 1.32 µM | TGI (NCI/ADR-RES ovarian): 6.21 µM | GI50 (SF-268 CNS): 2.97 µM | TGI (SF-268 CNS): 20.9 µM | GI50 (PC-3 prostate): 6.77 µM | TGI (PC-3 prostate): 61.5 µM | GI50 (RPMI-8226 leukemia): 61.6 µM | TGI (RPMI-8226 leukemia): > 100 µM | GI50 (SK-MEL-2 melanoma): 18.7 µM | TGI (SK-MEL-2 melanoma): 39.5 µM | GI50 (MDA-MB-468 breast): 3.33 µM | TGI (MDA-MB-468 breast): 18.2 µM | GI50 (ACHN renal): 1.85 µM | TGI (ACHN renal): 10.8 µM | GI50 (HOP-92 NSCLC): 2.32 µM | TGI (HOP-92 NSCLC): 15.2 µM | GI50 (MOLT-4 leukemia): 4.83 µM | TGI (MOLT-4 leukemia): > 100 µM
